In the data set the test system is CCRIS mutagenicity, Ames/micronucleus/aberration tests. Kind of data set: CCRIS mutagenicity studies.
The mark [1] stands for this setting: Test System: AMES SALMONELLA TYPHIMURIUM, Strain/Indicator: TA100, Metabolic Activation: NONE, Method: PREINCUBATION
[2] abbreviates: Test System: AMES SALMONELLA TYPHIMURIUM, Strain/Indicator: TA100, Metabolic Activation: NONE, Method: STANDARD PLATE.
[3] abbreviates: Test System: AMES SALMONELLA TYPHIMURIUM, Strain/Indicator: TA1535, Metabolic Activation: NONE, Method: PREINCUBATION
Setting [4] is: Test System: AMES SALMONELLA TYPHIMURIUM, Strain/Indicator: TA98, Metabolic Activation: NONE, Method: PREINCUBATION
The mark [5] stands for this setting: Test System: AMES SALMONELLA TYPHIMURIUM, Strain/Indicator: TA1537, Metabolic Activation: NONE, Method: PREINCUBATION
The mark [6] stands for this setting: Test System: AMES SALMONELLA TYPHIMURIUM, Strain/Indicator: TA98, Metabolic Activation: NONE, Method: STANDARD PLATE.
The mark [7] stands for this setting: Test System: AMES SALMONELLA TYPHIMURIUM, Strain/Indicator: TA100, Metabolic Activation: RAT, LIVER, S-9, AROCLOR 1254, Method: STANDARD PLATE.
Where [8] appears, read: Test System: AMES SALMONELLA TYPHIMURIUM, Strain/Indicator: TA104, Metabolic Activation: NONE, Method: STANDARD PLATE.
Setting [9] is: Test System: AMES SALMONELLA TYPHIMURIUM, Strain/Indicator: TA104, Metabolic Activation: RAT, LIVER, S-9, AROCLOR 1254, Method: STANDARD PLATE.

We go through eight molecules from PubChem BioAssay AID1259407 (Chemical Carcinogenesis Research Information System (CCRIS), 2018).

The source made the active and inactive calls. How the calls were made is not given here.

Consider `[N-]=[N+]=Nc1ccc(Nc2c3ccccc3nc3ccccc23)cc1`, for which the mutagenic call (Test System: AMES SALMONELLA TYPHIMURIUM, Strain/Indicator: TA1537, Metabolic Activation: NONE, Method: STANDARD PLATE) was “active; positive”.

Take `COc1ccc(CC2CO2)cc1OC` (centres undefined): the mutagenic call was “active; positive” under setting [1]; “active; positive” under setting [2]; “active; positive” under setting [3]; “active; positive” (Test System: AMES SALMONELLA TYPHIMURIUM, Strain/Indicator: TA1535, Metabolic Activation: NONE, Method: STANDARD PLATE).

With `OC1c2cccc3c2[C@]2(O[C@H]2C1O)c1ccccc1-3` (some centres undefined), the mutagenic call is, setting by setting: (Test System: AMES SALMONELLA TYPHIMURIUM, Strain/Indicator: TM677, Metabolic Activation: NONE, Method: PREINCUBATION) “active; positive”; (Test System: AMES SALMONELLA TYPHIMURIUM, Strain/Indicator: TM677, Metabolic Activation: RAT, LIVER, POSTMITOCHONDRIAL SUPERNATANT, AROCLOR 1254, Method: PREINCUBATION) “active; positive”.

On to `CCCCCCCCCCO`, for which the mutagenic call reads like this: under setting [4], “inactive; negative”; (Test System: AMES SALMONELLA TYPHIMURIUM, Strain/Indicator: TA98, Metabolic Activation: RAT, LIVER, S-9, PHENOBARBITAL AND BETA-NAPHTHOFLAVONE, Method: PREINCUBATION) “inactive; negative”; under setting [1], “inactive; negative”; (Test System: AMES SALMONELLA TYPHIMURIUM, Strain/Indicator: TA100, Metabolic Activation: RAT, LIVER, S-9, PHENOBARBITAL AND BETA-NAPHTHOFLAVONE, Method: PREINCUBATION) “inactive; negative”; (Test System: AMES SALMONELLA TYPHIMURIUM, Strain/Indicator: TA102, Metabolic Activation: NONE, Method: PREINCUBATION) “inactive; negative”; (Test System: AMES SALMONELLA TYPHIMURIUM, Strain/Indicator: TA102, Metabolic Activation: RAT, LIVER, S-9, SODIUM PHENOBARBITAL AND 5,6-BENZOFLAVONE, Method: PREINCUBATION) “inactive; negative”. Moreover, the mutagenic call is “inactive; negative” (Test System: AMES SALMONELLA TYPHIMURIUM, Strain/Indicator: TA104, Metabolic Activation: NONE, Method: PREINCUBATION); “inactive; negative” (Test System: AMES SALMONELLA TYPHIMURIUM, Strain/Indicator: TA104, Metabolic Activation: RAT, LIVER, S-9, SODIUM PHENOBARBITAL AND 5,6-BENZOFLAVONE, Method: PREINCUBATION); “inactive; negative” under setting [3]; “inactive; negative” (Test System: AMES SALMONELLA TYPHIMURIUM, Strain/Indicator: TA1535, Metabolic Activation: RAT, LIVER, S-9, PHENOBARBITAL AND BETA-NAPHTHOFLAVONE, Method: PREINCUBATION); “inactive; negative” under setting [5]; “inactive; negative” (Test System: AMES SALMONELLA TYPHIMURIUM, Strain/Indicator: TA1537, Metabolic Activation: RAT, LIVER, S-9, PHENOBARBITAL AND BETA-NAPHTHOFLAVONE, Method: PREINCUBATION). Also, the mutagenic call (Test System: CHINESE HAMSTER V-79, Strain/Indicator: V-79 (HPRT)/6-THIOGUANINE, Metabolic Activation: NONE, Method: STANDARD PLATE) is “inactive; negative”; the mutagenic call (Test System: CHINESE HAMSTER V-79, Strain/Indicator: V-79 (HPRT)/6-THIOGUANINE, Metabolic Activation: RAT LIVER S-9, Method: STANDARD PLATE) is “inactive; negative”; the mutagenic call (Test System: E. COLI, Strain/Indicator: WP2UVRA/PKM101, Metabolic Activation: NONE, Method: PREINCUBATION) is “inactive; negative”; the mutagenic call (Test System: E. COLI, Strain/Indicator: WP2UVRA/PKM101, Metabolic Activation: RAT, LIVER, S-9, PHENOBARBITAL AND BETA-NAPHTHOFLAVONE, Method: PREINCUBATION) was “inactive; negative”; the mutagenic call (Test System: E. COLI, Strain/Indicator: WP2UVRA, Metabolic Activation: NONE, Method: PREINCUBATION) is “inactive; negative”; the mutagenic call (Test System: E. COLI, Strain/Indicator: WP2UVRA, Metabolic Activation: RAT, LIVER, S-9, PHENOBARBITAL AND BETA-NAPHTHOFLAVONE, Method: PREINCUBATION) is “inactive; negative”.

Consider `O=CN(O)c1ccc(Cl)c(Cl)c1`, for which the mutagenic call is, setting by setting: (Test System: AMES SALMONELLA TYPHIMURIUM, Strain/Indicator: TA97, Metabolic Activation: NONE, Method: STANDARD PLATE) “inactive; negative”; (Test System: AMES SALMONELLA TYPHIMURIUM, Strain/Indicator: TA97, Metabolic Activation: RAT, LIVER, S-9, AROCLOR 1254, Method: STANDARD PLATE) “inactive; negative”; under setting [6], “inactive; negative”; (Test System: AMES SALMONELLA TYPHIMURIUM, Strain/Indicator: TA98, Metabolic Activation: RAT, LIVER, S-9, AROCLOR 1254, Method: STANDARD PLATE) “inactive; negative”; under setting [2], “inactive; negative”; under setting [7], “inactive; negative”. Further, the mutagenic call by setting is: under setting [8], “inactive; negative”; under setting [9], “inactive; negative”.

Regarding `CC(=O)O[C@H]1CC[C@@]2(C)C(=CC[C@H]3[C@@H]4CC[C@H]([C@H](C)CCCC(C)C)[C@@]4(C)CC[C@@H]32)C1`, the mutagenic call runs as follows: (Test System: AMES SALMONELLA TYPHIMURIUM, Strain/Indicator: TA97A, Metabolic Activation: NONE, Method: STANDARD PLATE) “inactive; negative”; (Test System: AMES SALMONELLA TYPHIMURIUM, Strain/Indicator: TA97A, Metabolic Activation: RAT, LIVER, S-9, AROCLOR 1254, Method: STANDARD PLATE) “inactive; negative”; under setting [2], “inactive; negative”; under setting [7], “inactive; negative”; (Test System: AMES SALMONELLA TYPHIMURIUM, Strain/Indicator: TA102, Metabolic Activation: NONE, Method: STANDARD PLATE) “inactive; negative”; (Test System: AMES SALMONELLA TYPHIMURIUM, Strain/Indicator: TA102, Metabolic Activation: RAT, LIVER, S-9, AROCLOR 1254, Method: STANDARD PLATE) “inactive; negative”. Moreover, the mutagenic call runs as follows: under setting [8], “inactive; negative”; under setting [9], “inactive; negative”.

As for `Cc1ccccc1-c1nc2ccccc2o1`, the mutagenic call by setting is: under setting [6], “inactive; negative”; (Test System: AMES SALMONELLA TYPHIMURIUM, Strain/Indicator: TA98, Metabolic Activation: S-9, Method: STANDARD PLATE) “inactive; negative”.

Consider `Cc1ccc(N=Nc2c(O)ccc3ccccc23)c([N+](=O)[O-])c1`, for which the mutagenic call runs as follows: (Test System: AMES SALMONELLA TYPHIMURIUM, Strain/Indicator: TA98, Metabolic Activation: HAMSTER, LIVER, S-9, AROCLOR 1254 (10%), Method: PREINCUBATION) “active; positive”; under setting [4], “inactive; negative”; (Test System: AMES SALMONELLA TYPHIMURIUM, Strain/Indicator: TA98, Metabolic Activation: RAT, LIVER, S-9, AROCLOR 1254 (10%), Method: PREINCUBATION) “inactive; negative”; (Test System: AMES SALMONELLA TYPHIMURIUM, Strain/Indicator: TA100, Metabolic Activation: HAMSTER, LIVER, S-9, AROCLOR 1254 (10%), Method: PREINCUBATION) “active; positive”; under setting [1], “inactive; negative”; (Test System: AMES SALMONELLA TYPHIMURIUM, Strain/Indicator: TA1535, Metabolic Activation: HAMSTER, LIVER, S-9, AROCLOR 1254 (10%), Method: PREINCUBATION) “inactive; negative”. Moreover, the mutagenic call under setting [3] is “inactive; negative”; the mutagenic call (Test System: AMES SALMONELLA TYPHIMURIUM, Strain/Indicator: TA1535, Metabolic Activation: RAT, LIVER, S-9, AROCLOR 1254 (10%), Method: PREINCUBATION) was “inactive; negative”; the mutagenic call (Test System: AMES SALMONELLA TYPHIMURIUM, Strain/Indicator: TA1537, Metabolic Activation: HAMSTER, LIVER, S-9, AROCLOR 1254 (10%), Method: PREINCUBATION) is “inactive; negative”; the mutagenic call under setting [5] is “inactive; negative”; the mutagenic call (Test System: AMES SALMONELLA TYPHIMURIUM, Strain/Indicator: TA1537, Metabolic Activation: RAT, LIVER, S-9, AROCLOR 1254 (10%), Method: PREINCUBATION) was “inactive; negative”.
